Laboratory results as given in patent US10858355B2, “Inhibitors of phosphatidylinositol 3-kinase gamma” (AstraZeneca AB, priority 2016, dated 2020).

Target: recombinant human PI3Kγ (aa144-1102)-6His (Homo sapiens (Human), UniProt P48736)
Test: Test A: Enzymatic Activity Assay for Rec Human PI3Kγ (ADP-Glo)
Type: biochemical
Details: 20 μM ATP, 80 μM DiC8-PIP2, 1.2 nM PI3Kγ, 15 min pre-incubation, 60 min reaction; for IC50: read-out: PI3Kγ activity, pIC50 (converted)
Experimental: Pharmacological Activity Test A: Enzymatic Activity Assay for Rec Human PI3Kγ
The activity of recombinant human PI3Kγ (aa144-1102)-6His was determined by measuring the ADP level after phosphorylation of DiC8-PIP2 using a commercially available ADP-Glo™ kit from Promega. The assay was carried out in white low volume 384 well plates in a final volume of 14 μl at rt. The assay conditions contained the following: 50 mM Tris buffer pH 7.4, 2.1 mM DTT, 3 mM MgCl2, 0.05% CHAPS, 20 μM ATP, 80 μM DiC8-PIP2 and 1.2 nM PI3Kγ. […] Routinely, inhibitors were pre-incubated with 3 μl of PI3Kγ for 15 min prior to the addition of […] substrate mixture for a further 60 min enzyme reaction. The phosphorylation was stopped with the addition of 3 μl ADP-Glo™ reagent (stop solution) followed by a 40 min incubation. Prior to detection 6 μl of ADP-Glo™ Kinase Detection Reagent was added and the plates were read in a micro plate reader using a Luminescence filter.

recombinant human PI3Kγ (aa144-1102)-6His, sequence (P48736 144-1102): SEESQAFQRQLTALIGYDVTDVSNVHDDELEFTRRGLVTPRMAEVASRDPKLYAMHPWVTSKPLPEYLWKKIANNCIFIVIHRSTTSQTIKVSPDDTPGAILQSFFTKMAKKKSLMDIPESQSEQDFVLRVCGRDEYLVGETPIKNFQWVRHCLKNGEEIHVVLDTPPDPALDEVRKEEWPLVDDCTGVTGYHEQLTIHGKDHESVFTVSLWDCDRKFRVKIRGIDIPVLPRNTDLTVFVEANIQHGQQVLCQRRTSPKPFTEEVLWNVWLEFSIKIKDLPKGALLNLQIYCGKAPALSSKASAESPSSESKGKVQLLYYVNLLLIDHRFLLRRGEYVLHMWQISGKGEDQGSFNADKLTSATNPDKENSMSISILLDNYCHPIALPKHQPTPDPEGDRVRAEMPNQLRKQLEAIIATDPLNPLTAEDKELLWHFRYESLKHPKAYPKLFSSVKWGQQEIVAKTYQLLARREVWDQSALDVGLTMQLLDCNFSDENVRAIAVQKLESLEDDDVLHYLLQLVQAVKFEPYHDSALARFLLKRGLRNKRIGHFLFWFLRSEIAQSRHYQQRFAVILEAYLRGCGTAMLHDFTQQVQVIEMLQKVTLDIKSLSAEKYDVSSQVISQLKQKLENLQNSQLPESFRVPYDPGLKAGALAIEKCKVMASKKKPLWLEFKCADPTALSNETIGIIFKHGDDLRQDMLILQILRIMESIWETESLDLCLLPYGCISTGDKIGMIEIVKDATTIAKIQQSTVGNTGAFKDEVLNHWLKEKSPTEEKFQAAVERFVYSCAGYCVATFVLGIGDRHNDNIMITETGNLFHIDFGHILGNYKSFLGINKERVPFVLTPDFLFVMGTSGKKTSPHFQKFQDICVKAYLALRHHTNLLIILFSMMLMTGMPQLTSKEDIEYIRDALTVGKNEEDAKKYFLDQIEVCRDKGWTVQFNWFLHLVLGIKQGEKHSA

| PI3Kγ activity, pIC50 | IC50 [nM] | Structure (SMILES) |
| --- | --- | --- |
| – | 1.26 | CNS(=O)(=O)c1cc(-c2sc(NC(C)=O)nc2Cl)cc2c1C(=O)N([C@@H](C)C1CC1)C2 [Example 30, N-(4-Chloro-5-{2-[(1S)-1-cyclopropylethyl]-7-(methylsulfamoyl)-1-oxo-2,3-dihydro-1H-isoindol-5-yl}-1,3-thiazol-2-yl)acetamide] |
| 8.7 | – | CNS(=O)(=O)c1cc(-c2cnc3c(N)nccn23)cc2c1C(=O)N([C@@H](C)C1CC1)C2 [Example 31, 6-(8-Aminoimidazo[1,2-a]pyrazin-3-yl)-2-[(1S)-1-cyclopropylethyl]-N-methyl-3-oxo-2,3-dihydro-1H-isoindole-4-sulfonamide] |
| 9.0 | – | CNS(=O)(=O)c1cc(-c2sc(NC(C)=O)nc2C)cc2c1C(=O)N(C(C)(C)C1CC1)C2 [Example 32, N-{5-[2-(2-Cyclopropylpropan-2-yl)-7-(methylsulfamoyl)-1-oxo-2,3-dihydro-1H-isoindol-5-yl]-4-methyl-1,3-thiazol-2-yl}acetamide] |
| 9.1 | – | CC(=O)Nc1nc(C)c(-c2cc3c(c(NS(=O)(=O)CC4CC4)c2)C(=O)N([C@@H](C)C2CC2)C3)s1 [Example 28, N-[5-(2-[(1S)-1-Cyclopropylethyl]-7-{[(cyclopropylmethyl)sulfonyl]amino}-1-oxo-2,3-dihydro-1H-isoindol-5-yl)-4-methyl-1,3-thiazol-2-yl]acetamide] |
| 8.8 | – | CNS(=O)(=O)c1cc(-c2sc(NC(C)=O)nc2C)cc2c1C(=O)N([C@@H](C)C(C)(C)C)C2 [Example 33, N-(5-{2-[(2S)-3,3-Dimethylbutan-2-yl]-7-(methylsulfamoyl)-1-oxo-2,3-dihydro-1H-isoindol-5-yl}-4-methyl-1,3-thiazol-2-yl)acetamide] |
| 9.0 | – | CNS(=O)(=O)c1cc(-c2sc(NC(C)=O)nc2C)cc2c1C(=O)N([C@@H](C)C(F)(F)F)C2 [Example 35, N-(4-Methyl-5-{7-(methylsulfamoyl)-1-oxo-2-[(2S)-1,1,1-trifluoropropan-2-yl]-2,3-dihydro-1H-isoindol-5-yl}-1,3-thiazol-2-yl)acetamide] |
| 8.8 | – | CNS(=O)(=O)c1cc(-c2sc(NC(C)=O)nc2C)cc2c1C(=O)N(C(C)(C)C)C2 [Example 34, N-{5-[2-tert-Butyl-7-(methylsulfamoyl)-1-oxo-2,3-dihydro-1H-isoindol-5-yl]-4-methyl-1,3-thiazol-2-yl}acetamide] |
| 9.3 | – | CC(=O)Nc1nc(C)c(-c2cc3c(c(S(=O)(=O)Nc4cccc(C#N)c4)c2)C(=O)N([C@@H](C)C2CC2)C3)s1 [Example 36, N-(5-{7-[(3-Cyanophenyl)sulfamoyl]-2-[(1S)-1-cyclopropylethyl]-1-oxo-2,3-dihydro-1H-isoindol-5-yl}-4-methyl-1,3-thiazol-2-yl)acetamide] |

More lines, now with the values behind:

| Structure (SMILES) | PI3Kγ activity, pIC50 | IC50 [nM] |
| --- | --- | --- |
| CC(=O)Nc1nc(C)c(-c2cc3c(c(S(=O)(=O)NC4CC(F)(F)C4)c2)C(=O)N([C@@H](C)C2CC2)C3)s1 [Example 17, N-(5-{2-[(1S)-1-Cyclopropylethyl]-7-[(3,3-difluorocyclobutyl)sulfamoyl]-1-oxo-2,3-dihydro-1H-isoindol-5-yl}-4-methyl-1,3-thiazol-2-yl)acetamide] | 8.9 | – |
| CCS(=O)(=O)Nc1cc(-c2sc(NC(C)=O)nc2C)cc2c1C(=O)N([C@@H](C)C1CC1)C2 [Example 25, N-(5-{2-[(1S)-1-Cyclopropylethyl]-7-[(ethylsulfonyl)amino]-1-oxo-2,3-dihydro-1H-isoindol-5-yl}-4-methyl-1,3-thiazol-2-yl)acetamide] | 9.1 | – |
| CC(=O)Nc1nc(C)c(-c2cc3c(c(S(=O)(=O)NC4CC4)c2)C(=O)N([C@@H](C)C2CC2)C3)s1 [Example 14, N-(5-{2-[(1S)-1-Cyclopropylethyl]-7-(cyclopropylsulfamoyl)-1-oxo-2,3-dihydro-1H-isoindol-5-yl}-4-methyl-1,3-thiazol-2-yl)acetamide] | 9.0 | – |
| CNS(=O)(=O)c1cc(-c2sc(NC(C)=O)nc2C)cc2c1C(=O)N(C(C)C)C2 [Example 11, N-{4-Methyl-5-[7-(methylsulfamoyl)-1-oxo-2-(propan-2-yl)-2,3-dihydro-1H-isoindol-5-yl]-1,3-thiazol-2-yl}acetamide] | 8.8 | – |
| CC(=O)Nc1nc(C)c(-c2cc3c(c(S(=O)(=O)N(C)C)c2)C(=O)N([C@@H](C)C2CC2)C3)s1 [Example 7, N-(5-{2-[(1S)-1-Cyclopropylethyl]-7-(dimethylsulfamoyl)-1-oxo-2,3-dihydro-1H-isoindol-5-yl}-4-methyl-1,3-thiazol-2-yl)acetamide] | 9.1 | – |
| CC(=O)Nc1nc(C)c(-c2cc3c(c(S(=O)(=O)NC4COC4)c2)C(=O)N([C@@H](C)C2CC2)C3)s1 [Example 16, N-(5-{2-[(1S)-1-Cyclopropylethyl]-7-(oxetan-3-ylsulfamoyl)-1-oxo-2,3-dihydro-1H-isoindol-5-yl}-4-methyl-1,3-thiazol-2-yl)acetamide] | 9.2 | – |
| CC(=O)Nc1nc(C)c(-c2cc3c(c(NS(=O)(=O)C(C)(C)C)c2)C(=O)N([C@@H](C)C2CC2)C3)s1 [Example 26, N-(5-{7-[(tert-Butylsulfonyl)amino]-2-[(1S)-1-cyclopropylethyl]-1-oxo-2,3-dihydro-1H-isoindol-5-yl}-4-methyl-1,3-thiazol-2-yl)acetamide] | 9.0 | – |
| CC(=O)Nc1nc(C)c(-c2cc3c(c(S(=O)(=O)NCC(F)(F)F)c2)C(=O)N([C@@H](C)C2CC2)C3)s1 [Example 20, N-(5-{2-[(1S)-1-Cyclopropylethyl]-1-oxo-7-[(2,2,2-trifluoroethyl)sulfamoyl]-2,3-dihydro-1H-isoindol-5-yl}-4-methyl-1,3-thiazol-2-yl)acetamide] | 9.2 | – |
| CC(=O)Nc1nc(C)c(-c2cc3c(c(S(=O)(=O)NC4CCC4)c2)C(=O)N([C@@H](C)C2CC2)C3)s1 [Example 10, N-(5-{7-(Cyclobutylsulfamoyl)-2-[(1S)-1-cyclopropylethyl]-1-oxo-2,3-dihydro-1H-isoindol-5-yl}-4-methyl-1,3-thiazol-2-yl)acetamide] | 8.9 | – |
| CC(=O)Nc1nc(C)c(-c2cc3c(c(NC(C)=O)c2)C(=O)N([C@@H](C)C2CC2)C3)s1 [Example 5, N-(5-{7-(Acetylamino)-2-[(1S)-1-cyclopropylethyl]-1-oxo-2,3-dihydro-1H-isoindol-5-yl}-4-methyl-1,3-thiazol-2-yl)acetamide] | 9.0 | – |
| CC(=O)Nc1nc(C)c(-c2cc3c(c(S(=O)(=O)NCC4CC4)c2)C(=O)N([C@@H](C)C2CC2)C3)s1 [Example 13, N-(5-{2-[(1S)-1-Cyclopropylethyl]-7-[(cyclopropylmethyl)sulfamoyl]-1-oxo-2,3-dihydro-1H-isoindol-5-yl}-4-methyl-1,3-thiazol-2-yl)acetamide] | 9.0 | – |
| CCCS(=O)(=O)Nc1cc(-c2sc(NC(C)=O)nc2C)cc2c1C(=O)N([C@@H](C)C1CC1)C2 [Example 24, N-(5-{2-[(1S)-1-Cyclopropylethyl]-1-oxo-7-[(propylsulfonyl)amino]-2,3-dihydro-1H-isoindol-5-yl}-4-methyl-1,3-thiazol-2-yl)acetamide] | 9.0 | – |
| CC(=O)Nc1ncc(-c2cc3c(c(S(C)(=O)=O)c2)C(=O)N([C@@H](C)C2CC2)C3)s1 [Example 2, N-(5-{2-[(1S)-1-Cyclopropylethyl]-7-(methylsulfonyl)-1-oxo-2,3-dihydro-1H-isoindol-5-yl}-1,3-thiazol-2-yl)acetamide] | 9.0 | – |
| CC(=O)Nc1nc(C)c(-c2cc3c(c(S(=O)(=O)NCC4(CF)CC4)c2)C(=O)N([C@@H](C)C2CC2)C3)s1 [Example 19, N-(5-{2-[(1S)-1-Cyclopropylethyl]-7-({[1-(fluoromethyl)cyclopropyl]methyl}sulfamoyl)-1-oxo-2,3-dihydro-1H-isoindol-5-yl}-4-methyl-1,3-thiazol-2-yl)acetamide] | – | 0.398 |
| CC(=O)Nc1ncc(-c2cc3c(c(S(N)(=O)=O)c2)C(=O)N([C@@H](C)C2CC2)C3)s1 [Example 12, N-(5-{2-[(1S)-1-Cyclopropylethyl]-1-oxo-7-sulfamoyl-2,3-dihydro-1H-isoindol-5-yl}-1,3-thiazol-2-yl)acetamide] | – | 1.26 |
| CC(=O)Nc1ncc(-c2cc3c(c(NS(C)(=O)=O)c2)C(=O)N([C@@H](C)C2CC2)C3)s1 [Example 22, N-(5-{2-[(1S)-1-Cyclopropylethyl]-7-[(methylsulfonyl)amino]-1-oxo-2,3-dihydro-1H-isoindol-5-yl}-1,3-thiazol-2-yl)acetamide] | – | 0.794 |
| CCNS(=O)(=O)c1cc(-c2sc(NC(C)=O)nc2C)cc2c1C(=O)N([C@@H](C)C1CC1)C2 [Example 15, N-(5-{2-[(1S)-1-Cyclopropylethyl]-7-(ethylsulfamoyl)-1-oxo-2,3-dihydro-1H-isoindol-5-yl}-4-methyl-1,3-thiazol-2-yl)acetamide] | 9.4 | – |
